Test results: US11793823B2, “Compounds and pharmaceutical uses thereof” (SyneuRx International (Taiwan) Corp., priority 2020, dated 2023)
Where two headings read alike, the source gives them in different places.

What was measured:
[1] = tested on: MK-801 treated mice; experiment: Open field test, MK-801 induced hyper-locomotion; format: in vivo; details: for effect on MK-801 induced hyper-locomotion vs MK-801 group: dose-dependent; for relief of MK801-induced hyperactivity: MK-801 0.2 mg/kg i.p., open field
Experimental: (§1) C57BL/6J male mice were group housed (3-5 mice per cage) with food and water available ad libitum in polysulfone ventilated cages (Alternative Design, AR, USA) in the animal room of SyneuRx. The colony was maintained on a 12/12-h light/dark cycle at the temperature of 22±2° C. and all behavioral studies were performed during the dark cycle. All animals used in this study were adult mice (at least 2.5 months of age). All animal procedures were performed according to the protocols approved by Institutional Animal Care and Use Committee (IACUC).
(§2) The mice were randomly assigned into five groups for open field test, Group 1: vehicle control, Group 2: MK-801, Group 3: Compound 66 at 10 mg/kg+MK-801, Group 4: Compound 66 at 30 mg/kg+MK-801, Group 5: Compound 66 at 100 mg/kg+MK-801. Mice at Group 2-5 received an acute administration of MK-801 (Sigma-Aldrich USA), a NMDA receptor antagonist, dissolved in normal saline, at 0.2 mg/kg for open field. For pre-pulse inhibition (PPI) test, animal was randomly assigned for four groups, Group 1: vehicle control, Group 2: MK-801, Group 3: Compound 66 at 3 mg/kg+MK-801, Group 4: Compound 66 at 10 mg/kg. Group 2-4 was received 0.3 mg/kg, MK-801. MK-801 was administrated by i.p. injection 20 minutes prior to open field and PPI tests. Test article, compound 66 (dissolved in ddH2O with 65% PEG400 and 10% DMSO), was orally treated 20 minutes prior to the MK-801 administration.
The open field task is a common measurement of novelty induced exploratory behavior and general activity in both mice and rats. The objective of this experiment was to evaluate the efficacy of compound 66 on attenuating the MK-801 induced hyper-locomotion. In this study, the mice were placed in a Plexiglas cage (37.5 cm×21.5 cm×18 cm) under 50-65 lux light intensity. Their spontaneous locomotor activities were measured for 60 minutes using the Photobeam Activity System (PAS)-open field (San Diego Instruments, San Diego, CA, USA). The total number of photo beam breaks of each mouse was measured as an index of locomotion activity.
as §2, with “74” for “66”, “field test.” for “field.”
(§3) All mice were tested with open field and pre-pulse inhibition tasks. The open field and pre-pulse inhibition tasks were used to evaluate the efficacy of the compound 74 on attenuating the MK-801 induced hyper-locomotion and deficit of sensorimotor gating function in mice, respectively. The apparatus and recording method of open field and pre-pulse inhibition task were as described above in Example 45.
Mice at Group 2-5 received an acute administration of MK-801 (Sigma-Aldrich USA), a NMDA receptor antagonist, dissolved in normal saline, at 0.2 mg/kg for open field test. […] Group […] was received 0.3 mg/kg, MK-801. MK-801 was administrated by i.p. injection 20 minutes prior to open field and PPI tests.
The open field task is a common measurement of novelty induced exploratory behavior and general activity in both mice and rats. […] In this study, the mice were placed in a Plexiglas cage (37.5 cm×21.5 cm×18 cm) under 50-65 lux light intensity. […]

[2] = tested on: MK-801 treated mice; experiment: Pre-pulse inhibition (PPI) test, MK-801 induced deficit of sensorimotor gating; format: in vivo; details: MK-801 0.3 mg/kg i.p.
Experimental: as §1, §2
Pre-pulse inhibition, using SR-LAB startle apparatus (San Diego Instruments, San Diego, CA, USA), was used to determine the efficacy of compound 66 on attenuating the MK-801 induced deficit of sensorimotor gating function in mice. Under 65 dB background noise, each session was composed of a 5-minute accumulation period followed by 64 trials in four blocks. The pulse alone (PA) trial was a 40 ms, 120 dB white noise burst. In the prepulse (pp)+pulse trials, a 20 ms white noise prepulse stimuli of 71 dB (pp6), 75 dB (pp10), and 83 dB (pp18) were presented 100 ms before a 40 ms 120 dB pulse. The non-stimulus (NS) trials presented the background noise only. The initial and the last blocks were composed of six PA trials, respectively. Two middle blocks consisted of PA, pp+pulse, and NS trials. These trials were presented pseudo-randomly and separated by intertribal intervals of 15 seconds on average (varying between 10 to 20 s). The percentage of prepulse inhibition was evaluated by the following formula: % PPI=100×[(PA score)−(pp-P score)]/(PA score), where the PA score was the average of the PA value in the middle blocks.
as §2, with “74” for “66”, “field test.” for “field.”
as §3, with “45. […]” for “45.”

[3] = molecular target: human D-amino acid oxidase (hDAAO) (Homo sapiens (Human), UniProt P14920); experiment: In vitro human D-amino acid oxidase (hDAAO) activity, D-Serine/Amplex Red fluorescence; format: biochemical; details: D-Serine substrate, 20 min
Experimental: The hDAAO inhibitory activities were measured by using D-Serine as a substrate to produce H2O2. The produced H2O2 would be oxidized by peroxidase, and the produced free radicals would further react with Amplex Red reagent to emit fluorescence. The intensity of fluorescence at 590 nm would be measured to represent the activity of hDAAO. All compounds were dissolved in DMSO. Each compound was diluted with DMSO in 3-fold serial dilution to create a dose response curve. Each sample was added in triplicate, 1 µL/well, into 96-well black plates. Positive control wells were added with 1 μL of DMSO. Then 49 μL of assay buffer (100 mM Tris-HCl, pH 8.5) containing 1.2 ng/mL hDAAO, 900 nM FAD, 0.2 units/mL HRP, and 100 μM Amplex Red was added to each well of the plate using a multichannel pipette. Next, 50 μL of 100 mM D-Serine in assay buffer was added. The reaction plates were then incubated in the dark at room temperature. The fluorescence readout was detected at 0 and 20 mins by Molecular Device Gemini EM fluorescence reader using the following settings: excitation filter 530 nm, and emission filter 590 nm. The percentage of inhibition values for each well was calculated with the following equation: The percentage of inhibition=(fluorescence sample, 20 min−fluorescence sample, 0 min)/(fluorescence DMSO, 20 min−fluorescence DMSO, 0 min)×100%
The nonlinear curve fitting model in GraphPad Prism was used to calculate IC50 value for each compound.

[4] = molecular target: SARS-CoV-2 3CLPro (Severe acute respiratory syndrome coronavirus 2 (2019-nCoV) (SARS-CoV-2), UniProt P0DTD1); experiment: biochemical
[5] = 75 dB and 83 dB pre-pulse, 3 mg/kg oral
[6] = final DMSO concentration 2%, read-out: IC50
[7] = final DMSO concentration 2%, read-out: IC50 (μg/mL) (converted)

Chain of human D-amino acid oxidase (hDAAO) (P14920 whole entry): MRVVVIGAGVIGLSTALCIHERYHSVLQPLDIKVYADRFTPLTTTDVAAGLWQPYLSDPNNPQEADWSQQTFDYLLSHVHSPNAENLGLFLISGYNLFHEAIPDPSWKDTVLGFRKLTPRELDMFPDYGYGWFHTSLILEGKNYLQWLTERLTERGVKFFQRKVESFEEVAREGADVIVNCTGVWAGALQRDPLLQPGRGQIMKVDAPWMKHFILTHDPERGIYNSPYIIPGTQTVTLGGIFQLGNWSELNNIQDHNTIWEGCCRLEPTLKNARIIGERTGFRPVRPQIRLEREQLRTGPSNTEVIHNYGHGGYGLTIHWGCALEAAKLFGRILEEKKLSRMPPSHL

Structure (SMILES) | effect on pre-pulse inhibition vs MK-801 group [2, 5] | IC50 [3] [µM] | IC50 [4, 6] [µM] | IC50 [4, 7] [µM] | other results
O=C(O)c1cc(O)c(O)c(OC(=O)c2cc(O)c(O)c(OC(=O)c3cc(O)c(O)c(OC(=O)c4cc(O)c(O)c(OC(=O)c5cc(O)c(O)c(OC(=O)c6cc(CCc7ccc(C(F)(F)F)cc7)n[nH]6)c5)c4)c3)c2)c1 [Compound 66, 3-((3-((3-((3-((3,4-dihydroxy-5-((3-(4-(trifluoromethyl)phenethyl)-1H-pyrazole-5-carbonyl)oxy)benzoyl)oxy)-4,5-dihydroxybenzoyl)oxy)-4,5-dihydroxybenzoyl)oxy)-4,5-dihydroxybenzoyl)oxy)-4,5-dihydroxybenzoic acid] | marginal improvement | 0.025 | – | – | effect on MK-801 induced hyper-locomotion vs MK-801 group ([1]; 10, 30 and 100 mg/kg oral): significantly reduced; relief of MK801-induced hyperactivity ([1]; high dose 100 mg/kg oral): 67%; effect on pre-pulse inhibition vs MK-801 group ([2]; 71 dB pre-pulse, 10 mg/kg oral): relieve PPI deficit to basal level; effect on pre-pulse inhibition vs MK-801 group ([2]; 75 dB and 83 dB pre-pulse, 10 mg/kg oral): significantly higher percentage of pre-pulse inhibition
O=C(O)c1cc(O)c(O)c(OC(=O)c2cc(O)c(O)c(OC(=O)c3cc(O)c(O)c(OC(=O)c4cc(O)c(O)c(OC(=O)c5cc(O)c(O)c(OC(=O)c6ccccc6)c5)c4)c3)c2)c1 [Compound 77, 3-((3-((3-((3-((3-(benzoyloxy)-4,5-dihydroxybenzoyl)oxy)-4,5-dihydroxybenzoyl)oxy)-4,5-dihydroxybenzoyl)oxy)-4,5-dihydroxybenzoyl)oxy)-4,5-dihydroxybenzoic acid] | – | 0.072 | – | – | IC50 ([4]; final DMSO concentration 0.4%, read-out: IC50): 4.33 µM; IC50 ([4]; final DMSO concentration 0.4%, read-out: IC50 (μg/mL) (converted)): 4.33 µM
O=C(CC1CCCCC1)Oc1cc(C(=O)Oc2cc(C(=O)Oc3cc(C(=O)Oc4cc(C(=O)Oc5cc(C(=O)O)cc(O)c5O)cc(O)c4O)cc(O)c3O)cc(O)c2O)cc(O)c1O [Compound 80, 3-((3-((3-((3-((3-(2-cyclohexylacetoxy)-4,5-dihydroxybenzoyl)oxy)-4,5-dihydroxybenzoyl)oxy)-4,5-dihydroxybenzoyl)oxy)-4,5-dihydroxybenzoyl)oxy)-4,5-dihydroxybenzoic acid] | – | 0.058 | > 62.5 | > 62.5 | –
O=C(OC[C@H]1O[C@H](OC(=O)c2cc(O)c(O)c(OC(=O)c3cc(O)c(O)c(OC(=O)c4cc(O)c(O)c(OC(=O)c5cc(O)c(O)c(O)c5)c4)c3)c2)[C@H](OC(=O)c2cc(O)c(O)c(OC(=O)c3cc(O)c(O)c(OC(=O)c4cc(O)c(O)c(OC(=O)c5cc(O)c(O)c(O)c5)c4)c3)c2)[C@@H]1OC(=O)c1cc(O)c(O)c(OC(=O)c2cc(O)c(O)c(OC(=O)c3cc(O)c(O)c(OC(=O)c4cc(O)c(O)c(O)c4)c3)c2)c1)c1cc(O)c(O)c(OC(=O)c2cc(O)c(O)c(OC(=O)c3cc(O)c(O)c(OC(=O)c4cc(O)c(O)c(O)c4)c3)c2)c1 [Compound 138, (2R,3R,4R,5R)-5-(((3-((3-((3,4-dihydroxy-5-((3,4,5-trihydroxybenzoyl)oxy)benzoyl)oxy)-4,5-dihydroxybenzoyl)oxy)-4,5-dihydroxybenzoyl)oxy)methyl)tetrahydrofuran-2,3,4-triyl tris(3-((3-((3,4-dihydroxy-5-((3,4,5-trihydroxybenzoyl)oxy)benzoyl)oxy)-4,5-dihydroxybenzoyl)oxy)-4,5-dihydroxybenzoate)] | relieve PPI deficit | 0.004 | – | – | effect on MK-801 induced hyper-locomotion vs MK-801 group ([1]; 3, 10 and 30 mg/kg oral): significantly reduced; relief of MK801-induced hyperactivity ([1]; high dose 30 mg/kg oral): 43%
O=C(Oc1ccccc1)c1cc(O)c(O)c(OC(=O)c2cc(O)c(O)c(OC(=O)c3cc(O)c(O)c(OC(=O)c4cc(O)c(O)c(OC(=O)c5cc(O)c(O)c(OC(=O)c6ccccc6)c5)c4)c3)c2)c1 [Compound 85, 5-((5-((5-((2,3-dihydroxy-5-(phenoxycarbonyl)phenoxy)carbonyl)-2,3-dihydroxyphenoxy)carbonyl)-2,3-dihydroxyphenoxy)carbonyl)-2,3-dihydroxyphenyl 3-(benzoyloxy)-4,5-dihydroxybenzoate] | – | 0.031 | 2.37 | 2.37 | –
O=C(OCc1cc(CCc2ccc(F)cc2)n[nH]1)c1cc(O)c(O)c(OC(=O)c2cc(O)c(O)c(OC(=O)c3cc(O)c(O)c(OC(=O)c4cc(O)c(O)c(OC(=O)c5cc(O)c(O)c(O)c5)c4)c3)c2)c1 [Compound 92, 5-((5-((5-((5-(((3-(4-fluorophenethyl)-1H-pyrazol-5-yl)methoxy)carbonyl)-2,3-dihydroxyphenoxy)carbonyl)-2,3-dihydroxyphenoxy)carbonyl)-2,3-dihydroxyphenoxy)carbonyl)-2,3-dihydroxyphenyl 3,4,5-trihydroxybenzoate] | – | 0.023 | 2.42 | 2.42 | –
